Experimental data: ChEMBL document CHEMBL3046894, “Synthesis and Herbicidal Activity of Pyrimidinyl Salicylic and Thiosalicylic Acids” (J Pestic Sci, 1996)
Active and inactive are the calls of the source. No cut-off for these calls is given here.

What was measured:
Persicaria nodosa [1] = assay: Post-emergence herbicidal activity against Persicaria nodosa assessed as growth inhibition at 25 g a.i/10 a applied 11 days after germination as foliar spray; type: functional, organism-based
Echinochloa crus-galli [2] = assay: Pre-emergence herbicidal activity against Echinochloa crus-galli (barnyard grass) assessed as growth inhibition at 25 g a.i/10 a; type: functional, organism-based
Glycine max [3] = assay: (§1) Post-emergence phytotoxicity against Glycine max (soybean) assessed as mortality at 1.6 g a.i/10 a applied 11 days after germination as foliar spray; type: organism-based; conditions: in vivo, other, 264 h
Gossypium hirsutum [4] = assay: Post-emergence phytotoxicity against Gossypium hirsutum (cotton) assessed as mortality at 1.6 g a.i/10 a applied 11 days after germination as foliar spray; type: organism-based; conditions: in vivo, other, 264 h
Amaranthus retroflexus [5] = assay: Pre-emergence herbicidal activity against Amaranthus retroflexus assessed as growth inhibition at 25 g a.i/10 a; type: functional, organism-based
Chenopodium album [6] = assay: Pre-emergence herbicidal activity against Chenopodium album assessed as growth inhibition at 25 g a.i/10 a; type: functional, organism-based
Gossypium hirsutum [7] = assay: Pre-emergence phytotoxicity against Gossypium hirsutum (cotton) assessed as mortality at 1.6 g a.i/10 a; type: organism-based; conditions: in vivo, other
Echinochloa crus-galli [8] = assay: Pre-emergence herbicidal activity against Echinochloa crus-galli (barnyard grass) assessed as mortality at 6.3 g a.i/10 a; type: functional; conditions: Echinochloa crus-galli, pre-emergence
Abutilon theophrasti [9] = assay: Pre-emergence herbicidal activity against Abutilon theophrasti (velvetleaf) assessed as mortality at 6.3 g a.i/10 a; type: functional; conditions: Abutilon theophrasti, pre-emergence
Ipomoea lacunosa [10] = assay: Pre-emergence herbicidal activity against Ipomoea lacunosa assessed as mortality at 1.6 g a.i/10 a; type: functional; conditions: for mortality at 16 g/ha: Ipomoea lacunosa, pre-emergence
Echinochloa crus-galli [11] = assay: Post-emergence herbicidal activity against Echinochloa crus-galli (barnyard grass) assessed as mortality at 6.3 g a.i/10 a applied 11 days after germination as foliar spray; type: functional; conditions: 264 h
Echinochloa crus-galli [12] = assay: Post-emergence herbicidal activity against Echinochloa crus-galli (barnyard grass) assessed as growth inhibition at 25 g a.i/10 a applied 11 days after germination as foliar spray; type: functional, organism-based
Persicaria nodosa [13] = assay: Pre-emergence herbicidal activity against Persicaria nodosa assessed as growth inhibition at 25 g a.i/10 a; type: functional, organism-based
Gossypium hirsutum [14] = assay: (§2) Post-emergence phytotoxicity against Gossypium hirsutum (cotton) assessed as mortality at 6.3 g a.i/10 a applied 11 days after germination as foliar spray; type: organism-based; conditions: in vivo, other, 264 h
Gossypium hirsutum [15] = assay: (§3) Pre-emergence phytotoxicity against Gossypium hirsutum (cotton) assessed as mortality at 6.3 g a.i/10 a; type: organism-based; conditions: in vivo, other
Glycine max [16] = assay: Pre-emergence phytotoxicity against Glycine max (soybean) assessed as mortality at 1.6 g a.i/10 a; type: organism-based; conditions: in vivo, other
Zea mays [17] = assay: (§4) Post-emergence phytotoxicity against Zea mays (maize) assessed as mortality at 1.6 g a.i/10 a applied 11 days after germination as foliar spray; type: organism-based; conditions: in vivo, other, 264 h
Digitaria sanguinalis [18] = assay: Pre-emergence herbicidal activity against Digitaria sanguinalis (hairy crabgrass) assessed as growth inhibition at 25 g a.i/10 a; type: functional, organism-based
Abutilon theophrasti [19] = assay: Post-emergence herbicidal activity against Abutilon theophrasti (velvetleaf) assessed as mortality at 6.3 g a.i/10 a applied 11 days after germination as foliar spray; type: functional; conditions: 264 h
[20] = (§5) Pre-emergence phytotoxicity against Zea mays (maize) assessed as mortality at 1.6 g a.i/10 a; type: organism-based; conditions: in vivo, 1.6 g a.i/10 a, read-out: mortality
Chenopodium album [21] = assay: Post-emergence herbicidal activity against Chenopodium album assessed as growth inhibition at 25 g a.i/10 a applied 11 days after germination as foliar spray; type: functional, organism-based
Cyperus iria [22] = assay: Pre-emergence herbicidal activity against Cyperus iria assessed as growth inhibition at 25 g a.i/10 a; type: functional, organism-based
Abutilon theophrasti [23] = assay: Post-emergence herbicidal activity against Abutilon theophrasti (velvetleaf) assessed as mortality at 1.6 g a.i/10 a applied 11 days after germination as foliar spray; type: functional; conditions: 264 h
Amaranthus retroflexus [24] = assay: Post-emergence herbicidal activity against Amaranthus retroflexus assessed as growth inhibition at 25 g a.i/10 a applied 11 days after germination as foliar spray; type: functional, organism-based
Cyperus iria [25] = assay: Post-emergence herbicidal activity against Cyperus iria assessed as growth inhibition at 25 g a.i/10 a applied 11 days after germination as foliar spray; type: functional, organism-based
[26] = (§6) Pre-emergence phytotoxicity against Glycine max (soybean) assessed as mortality at 6.3 g a.i/10 a; type: organism-based; conditions: in vivo, 6.3 g a.i/10 a, read-out: mortality
Digitaria sanguinalis [27] = assay: Post-emergence herbicidal activity against Digitaria sanguinalis (hairy crabgrass) assessed as growth inhibition at 25 g a.i/10 a applied 11 days after germination as foliar spray; type: functional, organism-based
[28] = as §1; type: organism-based; conditions: in vivo, 1.6 g a.i/10 a
[29] = as §2; type: organism-based; conditions: in vivo, 6.3 g a.i/10 a
[30] = as §4; type: organism-based; conditions: in vivo, 1.6 g a.i/10 a
Xanthium strumarium [31] = assay: Pre-emergence herbicidal activity against Xanthium strumarium (cocklebur) assessed as mortality at 6.3 g a.i/10 a; type: functional; conditions: Xanthium strumarium, pre-emergence
Zea mays [32] = assay: as §5; type: organism-based; conditions: in vivo, other
Ipomoea lacunosa [33] = assay: Pre-emergence herbicidal activity against Ipomoea lacunosa assessed as mortality at 6.3 g a.i/10 a; type: functional; conditions: Ipomoea lacunosa, pre-emergence
Xanthium strumarium [34] = assay: Pre-emergence herbicidal activity against Xanthium strumarium (cocklebur) assessed as mortality at 1.6 g a.i/10 a; type: functional; conditions: for mortality at 16 g/ha: Xanthium strumarium, pre-emergence
Xanthium strumarium [35] = assay: Post-emergence herbicidal activity against Xanthium strumarium (cocklebur) assessed as mortality at 1.6 g a.i/10 a applied 11 days after germination as foliar spray; type: functional; conditions: 264 h
Zea mays [36] = assay: Post-emergence phytotoxicity against Zea mays (maize) assessed as mortality at 6.3 g a.i/10 a applied 11 days after germination as foliar spray; type: organism-based; conditions: in vivo, other, 264 h
Ipomoea lacunosa [37] = assay: Post-emergence herbicidal activity against Ipomoea lacunosa assessed as mortality at 1.6 g a.i/10 a applied 11 days after germination as foliar spray; type: functional; conditions: 264 h
Glycine max [38] = assay: as §6; type: organism-based; conditions: in vivo, other
Zea mays [39] = assay: Pre-emergence phytotoxicity against Zea mays (maize) assessed as mortality at 6.3 g a.i/10 a; type: organism-based; conditions: in vivo, other
[40] = as §3; type: organism-based; conditions: in vivo, 6.3 g a.i/10 a, read-out: Activity
Glycine max [41] = assay: Post-emergence phytotoxicity against Glycine max (soybean) assessed as mortality at 6.3 g a.i/10 a applied 11 days after germination as foliar spray; type: organism-based; conditions: in vivo, other, 264 h
Echinochloa crus-galli [42] = assay: Post-emergence herbicidal activity against Echinochloa crus-galli (barnyard grass) assessed as mortality at 1.6 g a.i/10 a applied 11 days after germination as foliar spray; type: functional; conditions: 264 h
Ipomoea lacunosa [43] = assay: Post-emergence herbicidal activity against Ipomoea lacunosa assessed as mortality at 6.3 g a.i/10 a applied 11 days after germination as foliar spray; type: functional; conditions: 264 h

Row | SMILES | growth inhibition (GI) (Persicaria nodosa [1]) | growth inhibition (GI) (Echinochloa crus-galli [2]) | Activity (Gossypium hirsutum [4]) | growth inhibition (GI) (Amaranthus retroflexus [5]) | growth inhibition (GI) (Chenopodium album [6]) | mortality at 16 g/ha (Ipomoea lacunosa [10]) | mortality at 63 g/ha (Echinochloa crus-galli [11]) | growth inhibition (GI) (Echinochloa crus-galli [12]) | growth inhibition (GI) (Persicaria nodosa [13]) | Activity (Gossypium hirsutum [14]) | Activity (Gossypium hirsutum [15]) | Activity (Glycine max [16]) | growth inhibition (GI) (Digitaria sanguinalis [18]) | mortality at 63 g/ha (Abutilon theophrasti [19]) | growth inhibition (GI) (Chenopodium album [21]) | growth inhibition (GI) (Cyperus iria [22]) | mortality at 16 g/ha (Abutilon theophrasti [23]) | growth inhibition (GI) (Amaranthus retroflexus [24]) | growth inhibition (GI) (Cyperus iria [25]) | growth inhibition (GI) (Digitaria sanguinalis [27]) | also measured
1 | COc1cc(OC)nc(Oc2cccc(F)c2C(=O)O)n1 | Active | Active | Toxic | Active | Active | < 5% | > 90% | Active | Active | Toxic | Toxic | Toxic | Active | > 90% | Active | Active | > 90% | Active | Active | Active | Activity (Glycine max [3]): Toxic; Activity (Gossypium hirsutum [7]): Non-toxic; mortality at 63 g/ha (Echinochloa crus-galli [8]): > 90%; mortality at 63 g/ha (Abutilon theophrasti [9]): > 90%; Activity (Zea mays [17]): Toxic; mortality [20]: > 90%; mortality [26]: > 90%
2 | COc1cc(OC)nc(Oc2cccc(OC)c2C(=O)O)n1 | Active | Active | Toxic | Active | Active | < 5% | > 90% | Active | Active | – | Non-toxic | Non-toxic | Active | > 90% | Active | Active | > 90% | Active | Active | Active | mortality at 264 h [28]: > 90%; mortality at 63 g/ha (Echinochloa crus-galli [8]): > 90%; mortality at 63 g/ha (Abutilon theophrasti [9]): > 90%; mortality at 264 h [29]: > 90%; mortality at 264 h [30]: > 90%; mortality at 63 g/ha (Xanthium strumarium [31]): < 5%; Activity (Zea mays [32]): Toxic; mortality at 63 g/ha (Ipomoea lacunosa [33]): < 5%; mortality at 16 g/ha (Xanthium strumarium [34]): < 5%; mortality at 16 g/ha (Xanthium strumarium [35]): < 5%; mortality [26]: > 90%
3 | COc1cc(OC)nc(Oc2cccc(N)c2C(=O)O)n1 | Active | inactive | Non-toxic | Active | Active | – | – | Active | inactive | Toxic | – | – | inactive | – | Active | Active | < 5% | Active | Active | Active | Activity (Glycine max [3]): Toxic; Activity (Zea mays [17]): Toxic; Activity (Zea mays [36]): Toxic; mortality at 16 g/ha (Xanthium strumarium [35]): < 5%
4 | CCc1cccc(Oc2nc(OC)cc(OC)n2)c1C(=O)O | Active | Active | Toxic | Active | Active | < 5% | > 90% | Active | Active | Toxic | Non-toxic | Non-toxic | Active | > 90% | Active | Active | > 90% | Active | Active | Active | mortality at 264 h [28]: > 90%; mortality at 63 g/ha (Echinochloa crus-galli [8]): > 90%; mortality at 16 g/ha (Ipomoea lacunosa [37]): < 5%; mortality at 264 h [30]: > 90%; Activity (Zea mays [32]): Toxic; mortality at 16 g/ha (Xanthium strumarium [34]): < 5%; mortality at 16 g/ha (Xanthium strumarium [35]): < 5%; Activity (Glycine max [38]): Toxic
5 | COc1cc(OC)nc(Sc2cccc(F)c2C(=O)O)n1 | – | – | Non-toxic | – | – | – | – | – | – | Toxic | – | Non-toxic | – | – | – | – | – | – | – | – | mortality at 264 h [28]: > 90%; Activity (Gossypium hirsutum [7]): < 50%; Activity (Ipomoea lacunosa [10]): <50%; Activity (Zea mays [39]): Toxic; mortality [40]: < 50%; Activity (Zea mays [17]): Toxic; Activity (Zea mays [32]): Toxic; Activity (Xanthium strumarium [34]): <50%; Activity (Zea mays [36]): Toxic; Activity (Glycine max [38]): Non-toxic
6 | CCOc1cccc(Oc2nc(OC)cc(OC)n2)c1C(=O)O | Active | Active | Non-toxic | Active | Active | < 5% | – | Active | Active | Toxic | Non-toxic | Non-toxic | Active | > 90% | Active | Active | – | Active | Active | Active | mortality at 264 h [28]: > 90%; mortality at 264 h [30]: > 90%; Activity (Zea mays [32]): Toxic; mortality at 63 g/ha (Ipomoea lacunosa [33]): < 5%; mortality at 16 g/ha (Xanthium strumarium [34]): < 5%; Activity (Glycine max [38]): Toxic
7 | COc1cc(OC)nc(Sc2cccc(SC)c2C(=O)O)n1 | – | – | Non-toxic | – | – | – | < 5% | – | – | – | – | – | – | > 90% | – | – | > 90% | – | – | – | Activity (Glycine max [3]): Toxic; Activity (Glycine max [41]): Toxic; mortality at 264 h [29]: > 90%; mortality at 16 g/ha (Echinochloa crus-galli [42]): < 5%; Activity (Zea mays [17]): Toxic; mortality at 63 g/ha (Ipomoea lacunosa [43]): > 90%
